# Assay results as given in US20240190838A1, “LZK-TARGETING DEGRADERS AND METHODS OF USE” (The U.S.A., as represented by the Secretary, Department of …, priority 2020, published 2024).
# Assays:
# Format in all cases: cell-based
# CAL33 cells [1] = experiment: MTS cell viability assay, CAL33
# Protocol: A Cell Titer 96 AQueous One Solution Cell Proliferation Assay (Promega) was used for MTS assays following the manufacturer's protocol. […] MTS was added, cells were incubated for two hours, and absorbance was measured at 490 nm using iMark™ Microplate Absorbance Reader (Bio-Rad). Graphs display percent cell viability relative to the DMSO-treated control sample. EC50 values were determined using GraphPad Prism 8.
# NCI-H520 cells = experiment: Colony formation assay, NCI-H520
# Protocol: (§1) Crystal violet assays were used to assess relative cell growth and survival after treatment with specific compounds. In general, cells were plated in triplicate in 12-well plates for 24 hours before drug treatments were added using 10% FBS media. The plates were incubated for 14 days, with the media and drug being replaced every 48 hours. The cells were then washed with phosphate-buffered saline and fixed in ice-cold methanol before being stained with 0.5% crystal violet (Sigma-Aldrich) in 25% methanol. Images were taken using a ChemiDoc MP Imaging System (Bio Rad), and for quantification, the crystal violet stain was dissolved in 33% acetic acid, incubated for 20 minutes with shaking, and read at 595 nm using iMark™ Microplate Absorbance Reader (Bio-Rad). Graphs display percent colony formation relative to the DMSO-treated control sample.
# CAL33 cells [2] = experiment: Colony formation assay, CAL33
# Protocol: as §1
# LZK = target: T1, LZK (Homo sapiens, UniProt O43283); experiment: LZK inhibition in cells monitored by downstream JNK phosphorylation (dox-induced LZK); set-up: V5 (named only in the vector); expressed in transfected cells; host or cells: CAL33 HNSCC cells, lentiviral T-REx system, induced with doxycycline; details: for duration of JNK pathway inactivation / time at which LZK activity toward JNK was inhibited: 250 nM; for LZK inhibition in cells, measured by inhibition of downstream JNK pathway activation: dox-inducible LZK in CAL33 cells
# T1 sequence (O43283 1-966): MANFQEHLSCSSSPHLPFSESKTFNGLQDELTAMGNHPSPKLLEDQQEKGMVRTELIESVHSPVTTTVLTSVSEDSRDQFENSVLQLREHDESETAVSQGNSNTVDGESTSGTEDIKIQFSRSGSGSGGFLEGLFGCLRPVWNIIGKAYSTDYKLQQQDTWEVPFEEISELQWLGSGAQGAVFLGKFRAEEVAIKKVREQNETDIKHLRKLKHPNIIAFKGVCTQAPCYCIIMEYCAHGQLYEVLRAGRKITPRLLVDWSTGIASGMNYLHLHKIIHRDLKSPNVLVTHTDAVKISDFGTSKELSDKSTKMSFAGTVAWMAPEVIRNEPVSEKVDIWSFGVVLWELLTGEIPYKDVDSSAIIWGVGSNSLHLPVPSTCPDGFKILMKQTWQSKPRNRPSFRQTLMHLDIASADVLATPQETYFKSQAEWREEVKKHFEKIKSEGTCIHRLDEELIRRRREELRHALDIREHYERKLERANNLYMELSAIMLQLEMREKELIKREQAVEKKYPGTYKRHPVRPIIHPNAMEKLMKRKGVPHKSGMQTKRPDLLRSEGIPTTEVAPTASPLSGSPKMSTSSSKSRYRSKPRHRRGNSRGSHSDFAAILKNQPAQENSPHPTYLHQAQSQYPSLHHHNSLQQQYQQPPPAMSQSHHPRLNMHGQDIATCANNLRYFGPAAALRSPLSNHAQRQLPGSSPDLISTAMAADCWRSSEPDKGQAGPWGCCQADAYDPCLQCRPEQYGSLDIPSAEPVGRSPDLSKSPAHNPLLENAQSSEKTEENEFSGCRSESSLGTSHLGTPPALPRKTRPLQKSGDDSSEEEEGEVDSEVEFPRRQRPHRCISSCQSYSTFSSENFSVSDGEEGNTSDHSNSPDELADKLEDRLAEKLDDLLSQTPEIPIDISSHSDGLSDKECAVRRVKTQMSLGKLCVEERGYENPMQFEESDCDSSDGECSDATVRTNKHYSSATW
# Description: The ViraPower HiPerform T-REx Gateway Expression System (Invitrogen) was used to generate cells with tetracycline-inducible expression of LZK. In brief, wild-type (WT) or drug-resistant mutant (Q240S) LZK (cloned into pLenti6.3/TO/V5-DEST vector) and pLenti3.3/TR (for tetracycline repressor expression) were transfected into 293FT cells using Lipofectamine 2000 to generate lentiviral stock. Cell lines were generated by antibiotic selection (blasticidin [Gibco] and geneticin [Gibco]). Doxycycline (Sigma-Aldrich) was used at 1 μg/mL to induce LZK expression.
# Generally, cells were plated in six-well or 35-mm plates for 24 hours, after which doxycycline was added or treatment with specific inhibitor was administered using […] for 48 hours. After appropriate treatment time, cells were washed with ice-cold phosphate-buffered saline without Ca and Mg (Quality Biological) and then lysed on ice with RIPA buffer (50 mM NaCl, 1.0% o IGEPAL® CA-630, 0.5% o sodium deoxycholate, 0.10% SDS, 50 mM Tris, pH 8.0) (Sigma-Aldrich) supplemented with protease inhibitor tablet (Sigma-Aldrich) and phosphatase inhibitor cocktails 2 and 3 (Sigma-Aldrich) followed by centrifugation at 15,000 rpm for 10 minutes at 4° C. Protein concentrations were determined from the cell lysate by using 660 nm Protein Assay Reagent (Pierce). Cell extracts were denatured, subjected to SDS-PAGE, transferred to PVDF membranes (Bio-Rad) and blocked for 2 hours using 5 bovine serum albumin (BSA) in phosphate-buffered saline and 0.10 Tween® 20 (PBS-T). The membranes were incubated with the specific antibodies overnight in […] at 4° C. followed by a 1 hour incubation with the appropriate horseradish peroxidase-conjugated secondary antibodies and signal was detected by chemiluminescence (Thermo Fisher).
# A PathScan® Phospho-SAPK/JNK (Thr183/Tyr185) Sandwich ELISA Assay (Cell Signaling Technology) was used for ELISA assays following the manufacturer's protocol. In general, 500,000 cells were plated and treated with doxycycline the following day where appropriate and incubated at 37° C. for 48 hours. Cells were treated with the drug compound or control in 5% FBS media for 1 hour. After appropriate treatment time, cells were lysed on ice with 1x Cell Lysis Buffer (Cell Signaling Technology) supplemented with phosphatase and protease inhibitors (Sigma). Each diluted cell lysate was added to Phospho-SAPK/JNK (Thr183/Tyr185)Rabbit mAb Coated microwells in triplicate and incubated overnight at 4° C. Samples were treated with the following antibodies and incubated at 37° C. for 1 hour and 30 minutes, respectively: Detection Antibody and HRP-Linked secondary antibody. Samples were washed between treatments using 1× Wash Buffer according to the manufacturer's protocol. TMB substrate was added to each well and incubated at 37° C. for 10 minutes. Following this, STOPsolution was added to each well and absorbance was measured at 450 nm using iMark™ Microplate Absorbance Reader (Bio-Rad). Graphs display relative phospho-JNK levels.
# BICR56 cells = experiment: Colony formation assay, BICR56
# Protocol: as §1
# LK2 cells = experiment: Colony formation assay, LK2
# Protocol: as §1
# [3] = LZK inhibitor 2, concentration not stated
smiles,measurement,setting,value
CC(=O)N1CCC(c2cc(Nc3cc(C#N)ccn3)nc(N3CCC(F)(F)C3)c2)CC1 [LZK inhibitor 2],rescue of drug-induced loss of viability by LZK^Q240S expression,CAL33 cells [1]; 72-hour MTS assay,rescued decreases in viability
same,LSCC cell growth,NCI-H520 cells; 1 μM,significantly decreased LSCC cell growth
same,colony formation,CAL33 cells [2]; [3],suppressed colony formation
same,duration of JNK pathway inactivation,LZK,72 h
same,time at which LZK activity toward JNK was inhibited,LZK,five
same,concentration at which LZK activity was suppressed,LZK; 1 hour,100 nM
same,"LZK inhibition in cells, measured by inhibition of downstream JNK pathway activation",LZK,potent LZK inhibitor
same,JNK signaling inhibition compared with GNE-3511,LZK; one hour,inhibited JNK signaling at lower concentrations than GNE-3511
same,colony formation,BICR56 cells; [3],suppressed colony formation
same,LSCC cell growth,LK2 cells; 1 μM,significantly decreased LSCC cell growth
Cc1ncsc1-c1ccc([C@H](C)NC(=O)[C@@H]2C[C@@H](O)CN2C(=O)[C@@H](NC(=O)CCCCCCC(=O)N2CCC(c3cc(Nc4cc(C#N)ccn4)nc(N4CCC(F)(F)C4)c3)CC2)C(C)(C)C)cc1 [Compound 3],short-term cell viability,CAL33 cells [1],reduced
same,LSCC cell growth,NCI-H520 cells; 2.5 μM,significantly decreased LSCC cell growth
same,clonogenic growth,CAL33 cells [2]; 1 μM for 14 days,significant decreases in clonogenic growth
same,colony formation,CAL33 cells [2]; 2.5 μM,almost complete loss of colony formation
same,JNK signaling inhibition by targeted degraders,"LZK; CAL33 cells induced with doxycycline, 0-10 μM",inhibited JNK signaling
same,clonogenic growth,BICR56 cells; 1 μM for 14 days,significant decreases in clonogenic growth
same,colony formation,BICR56 cells; 2.5 μM,almost complete loss of colony formation
same,LSCC cell growth,LK2 cells; 2.5 μM,significantly decreased LSCC cell growth
N#Cc1ccnc(Nc2cc(C3CCN(C4COC4)CC3)cc(N3CCC(F)(F)C3)n2)c1 [GNE-3511],IC50,"CAL33 cells [1]; Homo sapiens, CAL-33, 72 hours, read-out: IC50, viability in short-term MTS assay",688 ± 114 nM
same,reduction in colony formation,NCI-H520 cells; 500 nM,55%
same,reduction in colony formation,"CAL33 cells [2]; 200 nM, 14 days",≥ 80%
same,"LZK activity, as monitored by downstream JNK phosphorylation",LZK; 100 nM to 5 μM at 1 hour,inhibited LZK activity
same,duration of JNK pathway inactivation,LZK,up to 72 hours
same,time at which LZK activity toward JNK was inhibited,LZK,≤ 15 min
same,"LZK inhibition in cells, measured by inhibition of downstream JNK pathway activation",LZK,potent LZK inhibitor in cells
same,reduction in colony formation,"BICR56 cells; 200 nM, 14 days",≥ 80%
same,reduction in colony formation,LK2 cells; 500 nM,45%
